pKd: −log10 of the molar value. Activity calls are given as the source filed them.
Experiments:
[1] = target: T1, Thyroid hormone receptor-associated protein 3 (Homo sapiens, UniProt Q9Y2W1)
T1 sequence (Q9Y2W1 whole entry): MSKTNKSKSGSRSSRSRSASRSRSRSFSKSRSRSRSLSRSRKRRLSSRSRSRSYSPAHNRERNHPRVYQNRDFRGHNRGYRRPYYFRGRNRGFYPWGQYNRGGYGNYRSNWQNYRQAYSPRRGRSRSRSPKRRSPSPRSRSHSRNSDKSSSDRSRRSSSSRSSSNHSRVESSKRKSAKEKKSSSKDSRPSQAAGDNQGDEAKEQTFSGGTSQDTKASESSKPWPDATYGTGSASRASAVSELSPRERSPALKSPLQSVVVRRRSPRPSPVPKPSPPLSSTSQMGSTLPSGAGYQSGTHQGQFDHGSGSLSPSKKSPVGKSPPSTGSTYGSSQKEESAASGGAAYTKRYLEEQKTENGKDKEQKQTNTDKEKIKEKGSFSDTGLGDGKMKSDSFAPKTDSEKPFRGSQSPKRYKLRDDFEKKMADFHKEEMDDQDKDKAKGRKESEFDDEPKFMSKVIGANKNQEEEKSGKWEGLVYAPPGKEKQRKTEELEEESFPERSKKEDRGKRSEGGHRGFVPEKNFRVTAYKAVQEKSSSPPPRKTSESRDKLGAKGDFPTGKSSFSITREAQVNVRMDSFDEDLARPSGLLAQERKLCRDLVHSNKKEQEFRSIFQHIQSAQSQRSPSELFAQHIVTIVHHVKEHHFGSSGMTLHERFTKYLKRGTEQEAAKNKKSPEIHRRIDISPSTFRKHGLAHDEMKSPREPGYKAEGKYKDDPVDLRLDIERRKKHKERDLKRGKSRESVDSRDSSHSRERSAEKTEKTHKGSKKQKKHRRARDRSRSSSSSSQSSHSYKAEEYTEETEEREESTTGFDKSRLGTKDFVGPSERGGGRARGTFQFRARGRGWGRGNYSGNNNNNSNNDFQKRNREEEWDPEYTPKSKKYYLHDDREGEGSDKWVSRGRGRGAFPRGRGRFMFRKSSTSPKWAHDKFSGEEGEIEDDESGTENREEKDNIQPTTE

[2] = target: Epidermal growth factor receptor (Homo sapiens, UniProt P00533)
Epidermal growth factor receptor, sequence (P00533 whole entry): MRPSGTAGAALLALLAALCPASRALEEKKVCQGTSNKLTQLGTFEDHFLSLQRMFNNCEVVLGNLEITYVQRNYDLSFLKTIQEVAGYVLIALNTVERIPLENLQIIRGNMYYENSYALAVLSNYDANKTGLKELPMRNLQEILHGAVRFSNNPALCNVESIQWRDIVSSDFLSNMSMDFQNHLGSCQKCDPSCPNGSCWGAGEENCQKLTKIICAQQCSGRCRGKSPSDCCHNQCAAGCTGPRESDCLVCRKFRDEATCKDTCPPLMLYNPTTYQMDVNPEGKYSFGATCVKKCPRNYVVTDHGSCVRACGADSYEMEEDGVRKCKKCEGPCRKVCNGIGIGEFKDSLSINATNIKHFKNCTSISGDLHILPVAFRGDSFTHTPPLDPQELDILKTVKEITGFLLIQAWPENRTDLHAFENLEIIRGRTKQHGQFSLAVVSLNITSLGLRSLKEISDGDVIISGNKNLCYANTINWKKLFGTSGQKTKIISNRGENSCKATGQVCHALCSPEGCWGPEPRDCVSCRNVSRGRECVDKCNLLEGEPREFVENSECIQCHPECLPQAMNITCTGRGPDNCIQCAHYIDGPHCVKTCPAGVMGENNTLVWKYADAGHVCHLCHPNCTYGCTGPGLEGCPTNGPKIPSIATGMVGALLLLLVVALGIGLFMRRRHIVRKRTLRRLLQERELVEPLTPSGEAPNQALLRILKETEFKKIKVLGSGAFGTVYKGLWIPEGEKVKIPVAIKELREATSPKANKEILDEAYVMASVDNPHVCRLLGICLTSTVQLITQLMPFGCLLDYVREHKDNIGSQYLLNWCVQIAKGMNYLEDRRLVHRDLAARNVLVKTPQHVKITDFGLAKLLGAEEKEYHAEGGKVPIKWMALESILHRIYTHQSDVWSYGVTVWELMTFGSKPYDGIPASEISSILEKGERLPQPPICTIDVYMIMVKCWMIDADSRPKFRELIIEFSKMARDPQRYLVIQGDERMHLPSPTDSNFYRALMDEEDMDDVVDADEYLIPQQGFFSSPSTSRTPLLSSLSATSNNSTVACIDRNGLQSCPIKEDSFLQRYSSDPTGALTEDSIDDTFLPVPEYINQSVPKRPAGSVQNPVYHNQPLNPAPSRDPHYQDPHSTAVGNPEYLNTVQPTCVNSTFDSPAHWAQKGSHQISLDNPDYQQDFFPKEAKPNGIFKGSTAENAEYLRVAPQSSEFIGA

[3] = target: T2, Dual specificity protein kinase TTK (Homo sapiens, UniProt P33981)
T2 sequence (P33981 whole entry): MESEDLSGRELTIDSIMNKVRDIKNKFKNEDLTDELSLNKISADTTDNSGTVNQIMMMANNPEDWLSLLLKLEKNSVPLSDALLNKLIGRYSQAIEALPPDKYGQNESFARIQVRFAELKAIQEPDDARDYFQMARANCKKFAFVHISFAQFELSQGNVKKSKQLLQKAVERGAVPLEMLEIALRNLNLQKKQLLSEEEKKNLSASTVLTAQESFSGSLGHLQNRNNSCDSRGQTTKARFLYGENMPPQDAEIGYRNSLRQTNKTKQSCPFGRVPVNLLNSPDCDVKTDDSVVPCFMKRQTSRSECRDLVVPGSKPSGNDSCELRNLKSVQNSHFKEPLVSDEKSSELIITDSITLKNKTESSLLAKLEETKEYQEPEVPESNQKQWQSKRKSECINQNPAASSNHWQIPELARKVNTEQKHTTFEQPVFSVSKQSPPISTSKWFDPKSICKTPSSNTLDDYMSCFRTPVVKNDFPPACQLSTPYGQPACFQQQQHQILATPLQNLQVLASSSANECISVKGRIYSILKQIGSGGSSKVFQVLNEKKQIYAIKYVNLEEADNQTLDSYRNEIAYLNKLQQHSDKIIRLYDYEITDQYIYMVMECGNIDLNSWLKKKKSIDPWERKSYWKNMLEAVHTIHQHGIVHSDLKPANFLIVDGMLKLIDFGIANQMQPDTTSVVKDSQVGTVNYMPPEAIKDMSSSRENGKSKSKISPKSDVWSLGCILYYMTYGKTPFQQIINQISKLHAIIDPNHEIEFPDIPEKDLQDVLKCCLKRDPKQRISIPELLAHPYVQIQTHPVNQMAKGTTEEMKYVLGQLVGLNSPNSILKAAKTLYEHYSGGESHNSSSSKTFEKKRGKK

[4] = target: Cyclin-dependent kinase 2 (Homo sapiens, UniProt P24941)
[5] = target: G protein-coupled receptor kinase 6 (Homo sapiens, UniProt P43250)
G protein-coupled receptor kinase 6, sequence (P43250 whole entry): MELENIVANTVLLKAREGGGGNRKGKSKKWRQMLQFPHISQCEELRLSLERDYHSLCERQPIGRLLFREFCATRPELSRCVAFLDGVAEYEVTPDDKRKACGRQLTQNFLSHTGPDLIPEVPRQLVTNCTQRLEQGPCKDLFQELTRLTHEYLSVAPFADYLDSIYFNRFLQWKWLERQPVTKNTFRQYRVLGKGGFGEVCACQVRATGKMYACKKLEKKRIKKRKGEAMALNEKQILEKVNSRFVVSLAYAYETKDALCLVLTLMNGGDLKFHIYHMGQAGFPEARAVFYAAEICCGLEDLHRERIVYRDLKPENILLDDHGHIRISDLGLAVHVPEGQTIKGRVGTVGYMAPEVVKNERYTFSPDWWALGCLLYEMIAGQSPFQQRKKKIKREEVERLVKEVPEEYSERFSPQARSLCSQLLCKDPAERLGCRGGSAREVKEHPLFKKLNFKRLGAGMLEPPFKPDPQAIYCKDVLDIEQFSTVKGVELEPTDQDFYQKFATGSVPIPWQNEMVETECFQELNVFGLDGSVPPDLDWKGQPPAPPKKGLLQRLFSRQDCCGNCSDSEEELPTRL

[6] = target: T3, Protein kinase C zeta type (Homo sapiens, UniProt Q05513)
T3 sequence (Q05513 whole entry): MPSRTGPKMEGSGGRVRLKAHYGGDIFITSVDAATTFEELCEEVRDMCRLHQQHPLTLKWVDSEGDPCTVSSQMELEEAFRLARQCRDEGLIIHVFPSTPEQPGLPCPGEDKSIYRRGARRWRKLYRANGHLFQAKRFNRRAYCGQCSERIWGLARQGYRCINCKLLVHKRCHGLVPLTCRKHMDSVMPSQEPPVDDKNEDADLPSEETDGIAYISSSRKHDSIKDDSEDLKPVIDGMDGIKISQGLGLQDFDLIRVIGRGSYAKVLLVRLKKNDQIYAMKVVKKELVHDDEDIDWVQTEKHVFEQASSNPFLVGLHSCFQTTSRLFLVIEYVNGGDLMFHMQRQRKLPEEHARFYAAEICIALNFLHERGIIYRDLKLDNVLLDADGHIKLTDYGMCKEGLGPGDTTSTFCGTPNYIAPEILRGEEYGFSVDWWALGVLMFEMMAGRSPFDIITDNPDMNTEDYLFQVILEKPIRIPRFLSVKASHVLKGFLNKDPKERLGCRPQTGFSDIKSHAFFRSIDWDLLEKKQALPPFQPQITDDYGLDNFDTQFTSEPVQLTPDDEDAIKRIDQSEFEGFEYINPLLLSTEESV

Myosin-10 = Myosin-10 (Homo sapiens, UniProt P35580)
Myosin-10, sequence (P35580 whole entry): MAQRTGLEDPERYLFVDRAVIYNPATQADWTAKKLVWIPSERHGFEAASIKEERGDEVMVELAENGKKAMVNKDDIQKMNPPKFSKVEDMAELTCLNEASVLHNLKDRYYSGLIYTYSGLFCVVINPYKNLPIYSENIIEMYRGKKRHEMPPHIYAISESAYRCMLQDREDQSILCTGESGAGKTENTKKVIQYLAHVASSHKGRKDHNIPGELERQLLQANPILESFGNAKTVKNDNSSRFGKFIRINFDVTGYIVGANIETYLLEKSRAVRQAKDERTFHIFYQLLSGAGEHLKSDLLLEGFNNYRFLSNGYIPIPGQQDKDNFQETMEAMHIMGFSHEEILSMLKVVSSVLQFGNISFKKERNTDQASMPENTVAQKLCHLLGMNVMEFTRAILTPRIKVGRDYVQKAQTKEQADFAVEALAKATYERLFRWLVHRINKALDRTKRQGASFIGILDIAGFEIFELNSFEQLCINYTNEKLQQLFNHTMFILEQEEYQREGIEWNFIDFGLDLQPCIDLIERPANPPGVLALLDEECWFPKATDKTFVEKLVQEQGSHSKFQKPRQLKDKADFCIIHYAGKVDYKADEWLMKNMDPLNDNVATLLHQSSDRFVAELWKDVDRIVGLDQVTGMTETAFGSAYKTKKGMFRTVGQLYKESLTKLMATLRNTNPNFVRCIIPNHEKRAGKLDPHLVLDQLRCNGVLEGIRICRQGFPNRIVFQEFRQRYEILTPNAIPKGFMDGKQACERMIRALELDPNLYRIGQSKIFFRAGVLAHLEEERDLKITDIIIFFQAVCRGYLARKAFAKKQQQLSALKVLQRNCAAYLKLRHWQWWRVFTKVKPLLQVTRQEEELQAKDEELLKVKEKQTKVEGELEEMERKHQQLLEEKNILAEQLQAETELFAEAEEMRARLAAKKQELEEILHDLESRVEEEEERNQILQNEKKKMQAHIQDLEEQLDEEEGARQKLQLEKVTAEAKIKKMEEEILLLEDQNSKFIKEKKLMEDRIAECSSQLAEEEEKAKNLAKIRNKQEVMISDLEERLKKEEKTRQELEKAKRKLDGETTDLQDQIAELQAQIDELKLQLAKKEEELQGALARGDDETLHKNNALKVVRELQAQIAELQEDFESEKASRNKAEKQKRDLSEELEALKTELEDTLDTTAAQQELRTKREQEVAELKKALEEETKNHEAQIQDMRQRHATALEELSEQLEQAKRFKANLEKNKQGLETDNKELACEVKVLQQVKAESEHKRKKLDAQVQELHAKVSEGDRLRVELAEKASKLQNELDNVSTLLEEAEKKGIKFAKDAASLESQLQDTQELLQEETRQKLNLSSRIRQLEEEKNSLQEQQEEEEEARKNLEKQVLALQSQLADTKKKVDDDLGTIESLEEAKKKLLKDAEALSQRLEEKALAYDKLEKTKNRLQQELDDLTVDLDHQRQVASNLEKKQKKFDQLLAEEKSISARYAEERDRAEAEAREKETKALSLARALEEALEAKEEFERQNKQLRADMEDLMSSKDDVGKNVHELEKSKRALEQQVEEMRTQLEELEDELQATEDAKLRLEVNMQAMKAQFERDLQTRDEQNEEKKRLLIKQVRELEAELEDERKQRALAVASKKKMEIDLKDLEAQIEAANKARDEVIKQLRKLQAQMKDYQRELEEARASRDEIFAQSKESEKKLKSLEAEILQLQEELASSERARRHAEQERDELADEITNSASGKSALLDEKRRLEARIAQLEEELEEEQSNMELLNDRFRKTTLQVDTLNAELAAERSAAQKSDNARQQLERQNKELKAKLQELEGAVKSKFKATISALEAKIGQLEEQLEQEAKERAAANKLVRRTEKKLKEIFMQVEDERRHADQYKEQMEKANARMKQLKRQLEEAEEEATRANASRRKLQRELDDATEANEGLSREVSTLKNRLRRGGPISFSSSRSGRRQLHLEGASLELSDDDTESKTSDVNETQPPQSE

[7] = target: Guanine nucleotide-binding protein G(i) subunit alpha-2 (Homo sapiens, UniProt P04899)
Guanine nucleotide-binding protein G(i) subunit alpha-2, sequence (P04899 whole entry): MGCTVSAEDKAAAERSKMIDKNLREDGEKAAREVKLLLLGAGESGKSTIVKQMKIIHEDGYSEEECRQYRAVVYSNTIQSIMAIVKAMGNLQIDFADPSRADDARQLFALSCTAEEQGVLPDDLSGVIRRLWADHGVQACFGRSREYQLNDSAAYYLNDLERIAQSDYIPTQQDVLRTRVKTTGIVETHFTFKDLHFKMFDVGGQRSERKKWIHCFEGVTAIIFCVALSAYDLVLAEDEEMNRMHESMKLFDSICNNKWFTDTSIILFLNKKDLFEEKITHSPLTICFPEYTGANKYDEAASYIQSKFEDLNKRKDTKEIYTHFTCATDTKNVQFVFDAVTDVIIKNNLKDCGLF

[8] = target: Serine/threonine-protein kinase PLK1 (Homo sapiens, UniProt P53350)
Serine/threonine-protein kinase PLK1, sequence (P53350 whole entry): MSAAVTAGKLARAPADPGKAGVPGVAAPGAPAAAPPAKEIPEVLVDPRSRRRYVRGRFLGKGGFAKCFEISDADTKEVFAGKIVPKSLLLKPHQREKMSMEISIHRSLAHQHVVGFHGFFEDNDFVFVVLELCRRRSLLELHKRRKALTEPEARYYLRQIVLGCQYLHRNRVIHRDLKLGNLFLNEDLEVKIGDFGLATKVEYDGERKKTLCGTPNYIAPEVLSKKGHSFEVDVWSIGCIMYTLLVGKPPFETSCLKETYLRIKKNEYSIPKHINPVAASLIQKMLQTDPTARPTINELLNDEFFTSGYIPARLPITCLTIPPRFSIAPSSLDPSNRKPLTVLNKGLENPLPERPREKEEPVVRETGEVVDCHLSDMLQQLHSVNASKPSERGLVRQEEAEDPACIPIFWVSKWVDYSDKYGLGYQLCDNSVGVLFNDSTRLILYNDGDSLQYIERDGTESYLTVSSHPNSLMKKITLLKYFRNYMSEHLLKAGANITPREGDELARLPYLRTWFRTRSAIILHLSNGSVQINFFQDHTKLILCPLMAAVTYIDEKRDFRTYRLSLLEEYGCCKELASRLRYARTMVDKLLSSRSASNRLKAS

UMP-CMP kinase = target: T4, UMP-CMP kinase (Homo sapiens, UniProt P30085)
T4 sequence (P30085 whole entry): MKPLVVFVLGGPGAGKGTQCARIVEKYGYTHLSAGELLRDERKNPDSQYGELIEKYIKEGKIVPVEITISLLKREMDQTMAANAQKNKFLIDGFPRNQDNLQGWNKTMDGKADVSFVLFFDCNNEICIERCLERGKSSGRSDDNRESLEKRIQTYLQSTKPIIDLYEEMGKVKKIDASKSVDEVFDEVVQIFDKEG
Also: in the data inactive means no Kd found up to 30 µM.

Structure (SMILES)	Kd [1]	Kd [2]	Kd [3]	Kd [4]	Kd [5]	Kd [6]	Kd (Myosin-10)	Kd [7]	Kd [8]	Kd (UMP-CMP kinase)	pKd [3]
O=c1sn(-c2cccc3ccccc23)c(=O)n1Cc1ccccc1 [TIDEGLUSIB]	> 30 µM (inactive)	> 30 µM (inactive)	> 30 µM (inactive)	> 30 µM (inactive)	> 30 µM (inactive)						
Cn1cc(-c2ccc3nnc(C(F)(F)c4ccc5ncccc5c4)n3n2)cn1 [JNJ-38877605]	> 30 µM (inactive)	> 30 µM (inactive)		> 30 µM (inactive)	> 30 µM (inactive)	> 30 µM (inactive)	> 30 µM (inactive)	> 30 µM (inactive)	> 30 µM (inactive)		
CNS(=O)(=O)Nc1nccc(Cc2c(C)c3ccc(Oc4ncccn4)cc3oc2=O)c1F [AVUTOMETINIB]	> 30 µM (inactive)	> 30 µM (inactive)	> 30 µM (inactive)	> 30 µM (inactive)			> 30 µM (inactive)	> 30 µM (inactive)			
CN(C)C(=O)c1cc2cnc(Nc3ccc(N4CCNCC4)cn3)nc2n1C1CCCC1 [RIBOCICLIB]		> 30 µM (inactive)	> 30 µM (inactive)		> 30 µM (inactive)			> 30 µM (inactive)			
COc1ccc(-c2ccc3c(N4CCOC[C@@H]4C)nc(N4CCOC[C@@H]4C)nc3n2)cc1CO [AZD-8055]	> 30 µM (inactive)	> 30 µM (inactive)	> 30 µM (inactive)	> 30 µM (inactive)	> 30 µM (inactive)	> 30 µM (inactive)	> 30 µM (inactive)	> 30 µM (inactive)		> 30 µM (inactive)	
COc1cc2nccc(Oc3ccc(NC(=O)Nc4cc(C)on4)c(Cl)c3)c2cc1OC [TIVOZANIB]	> 30 µM (inactive)			> 30 µM (inactive)	> 30 µM (inactive)	> 30 µM (inactive)	> 30 µM (inactive)	> 30 µM (inactive)	> 30 µM (inactive)	> 30 µM (inactive)	
CNC(=O)CN1CCC(Oc2cc3c(Nc4cccc(Cl)c4F)ncnc3cc2OC)CC1 [SAPITINIB]			> 30 µM (inactive)	> 30 µM (inactive)	> 30 µM (inactive)	> 30 µM (inactive)		> 30 µM (inactive)			
COC(=O)[C@@]1(O)C[C@H]2O[C@]1(C)n1c3ccccc3c3c4c(c5c6ccccc6n2c5c31)C(=O)NC4 [K-252A]	> 30 µM (inactive)	> 30 µM (inactive)									7.52
COc1cc(N2CCC(N3CCN(C)CC3)CC2)ccc1Nc1ncnc(Nc2ccccc2S(=O)(=O)C(C)C)n1 [ASP-3026]	> 30 µM (inactive)	20.8 µM (active)	> 30 µM (inactive)	> 30 µM (inactive)	> 30 µM (inactive)			> 30 µM (inactive)			
CCn1c(=O)c(-c2cc[nH]n2)cc2c(C)nc(N)nc21 [VOXTALISIB]	> 30 µM (inactive)	> 30 µM (inactive)		> 30 µM (inactive)		> 30 µM (inactive)	> 30 µM (inactive)	> 30 µM (inactive)	> 30 µM (inactive)	> 30 µM (inactive)	
Cc1cc2c(F)c(Oc3ncnn4cc(OC[C@@H](C)OC(=O)[C@H](C)N)c(C)c34)ccc2[nH]1 [BRIVANIB ALANINATE]	> 30 µM (inactive)	> 30 µM (inactive)	> 30 µM (inactive)	> 30 µM (inactive)	> 30 µM (inactive)	> 30 µM (inactive)	> 30 µM (inactive)	> 30 µM (inactive)		> 30 µM (inactive)	
Cc1cc(Nc2cc(N3CCN(C)CC3)nc(/C=C/c3ccccc3)n2)n[nH]1 [ENMD-2076]	> 30 µM (inactive)		> 30 µM (inactive)		> 30 µM (inactive)		> 30 µM (inactive)	> 30 µM (inactive)		> 30 µM (inactive)	
Cc1nc(N)sc1-c1ccnc(Nc2ccc(N3CCOCC3)cc2)n1 [CYC-116]	> 30 µM (inactive)						> 30 µM (inactive)			> 30 µM (inactive)	7.80
COC(=O)N[C@@H](C)CNc1nccc(-c2cn(C(C)C)nc2-c2cc(Cl)cc(NS(C)(=O)=O)c2F)n1 [ENCORAFENIB]	> 30 µM (inactive)	> 30 µM (inactive)	> 30 µM (inactive)	> 30 µM (inactive)	> 30 µM (inactive)		> 30 µM (inactive)	> 30 µM (inactive)		> 30 µM (inactive)	
COCCNCc1ccc(-c2cc3nccc(Oc4ccc(NC(=S)NC(=O)Cc5ccc(F)cc5)cc4F)c3s2)nc1 [GLESATINIB]	> 30 µM (inactive)	> 30 µM (inactive)		> 30 µM (inactive)	> 30 µM (inactive)	> 30 µM (inactive)	> 30 µM (inactive)	> 30 µM (inactive)	> 30 µM (inactive)	> 30 µM (inactive)	
Cc1c(F)cc(C(=O)NC2CC2)cc1-c1ccc(C(=O)NCC(C)(C)C)cn1 [LOSMAPIMOD]		> 30 µM (inactive)	> 30 µM (inactive)	> 30 µM (inactive)	> 30 µM (inactive)			> 30 µM (inactive)	> 30 µM (inactive)		
C[C@@H]1CN(Cc2ccc(F)cc2)[C@@H](C)CN1C(=O)c1cc2c(C(=O)C(=O)N(C)C)cn(C)c2cc1Cl [TALMAPIMOD]		> 30 µM (inactive)	> 30 µM (inactive)	> 30 µM (inactive)	> 30 µM (inactive)	> 30 µM (inactive)		> 30 µM (inactive)		> 30 µM (inactive)	
COc1cc(CCc2cc(NC(=O)c3ccc(N4C[C@@H](C)N[C@@H](C)C4)cc3)n[nH]2)cc(OC)c1 [AZD-4547]	> 30 µM (inactive)	> 30 µM (inactive)			> 30 µM (inactive)	> 30 µM (inactive)	> 30 µM (inactive)		> 30 µM (inactive)	> 30 µM (inactive)	
